Measured values published in patent US10022352B2, “Modulators of ATP-binding cassette transporters” (Vertex Pharmaceuticals Incorporated, priority 2006, dated 2018).
Where two headings read alike, the source gives them in different places.

Assays:
ΔF508-CFTR = ΔF508-CFTR (Homo sapiens (Human), UniProt P13569, DEL508-508); assay: Membrane potential optical assay, identification of correction compounds; type: cell-based
Excerpt: Membrane potential optical methods for assaying ΔF508-CFTR modulation properties of compounds.
The assay utilizes fluorescent voltage sensing dyes to measure changes in membrane potential using a fluorescent plate reader (e.g., FLIPR II, Molecular Devices, Inc.) as a readout for increase in functional ΔF508-CFTR in NIH 3T3 cells. The driving force for the response is the creation of a chloride ion gradient in conjunction with channel activation by a single liquid addition step after the cells have previously been treated with compounds and subsequently loaded with a voltage sensing dye.
Identification of Correction Compounds
To identify small molecules that correct the trafficking defect associated with ΔF508-CFTR; a single-addition HTS assay format was developed. Assay Plates containing cells are incubated for ˜2-4 hours in tissue culture incubator at 37° C., 5% CO2, 90% humidity. Cells are then ready for compound exposure after adhering to the bottom of the assay plates.
The cells were incubated in serum-free medium for 16-24 hrs in tissue culture incubator at 37° C., 5% CO2, 90% humidity in the presence or absence (negative control) of test compound. The cells were subsequently rinsed 3× with Krebs Ringers solution and loaded with a voltage sensing redistribution dye. To activate ΔF508-CFTR, 10 μM forskolin and the CFTR potentiator, genistein (20 μM), were added along with Cl^−-free medium to each well. The addition of Cl^−-free medium promoted Cl^− efflux in response to ΔF508-CFTR activation and the resulting membrane depolarization was optically monitored using voltage sensor dyes.
Bath #1: (in mM) NaCl 160, KCl 4.5, CaCl2 2, MgCl2 1, HEPES 10, pH 7.4 with NaOH.
free bath solution: Chloride salts in Bath Solution #1 are substituted with gluconate salts.
NIH3T3 fibroblasts stably expressing ΔF508-CFTR are used for optical measurements of membrane potential. The cells are maintained at 37° C. in 5% CO2 and 90% humidity in Dulbecco's modified Eagle's medium supplemented with 2 mM glutamine, 10% fetal bovine serum, 1×NEAA, β-ME, 1× pen/strep, and 25 mM HEPES in 175 cm^2 culture flasks. For all optical assays, the cells were seeded at ˜20,000/well in 384-well matrigel-coated plates and cultured for 2 hrs at 37° C. before culturing at 27° C. for 24 hrs. for the potentiator assay. For the correction assays, the cells are cultured at 27° C. or 37° C. with and without compounds for 16-24 hours. Electrophysiological Assays for assaying ΔF508-CFTR modulation properties of compounds.

Solubility in water = type: physicochemical

Chain of ΔF508-CFTR (P13569 other isoform, or with tags, fused parts or gaps del F508-F508): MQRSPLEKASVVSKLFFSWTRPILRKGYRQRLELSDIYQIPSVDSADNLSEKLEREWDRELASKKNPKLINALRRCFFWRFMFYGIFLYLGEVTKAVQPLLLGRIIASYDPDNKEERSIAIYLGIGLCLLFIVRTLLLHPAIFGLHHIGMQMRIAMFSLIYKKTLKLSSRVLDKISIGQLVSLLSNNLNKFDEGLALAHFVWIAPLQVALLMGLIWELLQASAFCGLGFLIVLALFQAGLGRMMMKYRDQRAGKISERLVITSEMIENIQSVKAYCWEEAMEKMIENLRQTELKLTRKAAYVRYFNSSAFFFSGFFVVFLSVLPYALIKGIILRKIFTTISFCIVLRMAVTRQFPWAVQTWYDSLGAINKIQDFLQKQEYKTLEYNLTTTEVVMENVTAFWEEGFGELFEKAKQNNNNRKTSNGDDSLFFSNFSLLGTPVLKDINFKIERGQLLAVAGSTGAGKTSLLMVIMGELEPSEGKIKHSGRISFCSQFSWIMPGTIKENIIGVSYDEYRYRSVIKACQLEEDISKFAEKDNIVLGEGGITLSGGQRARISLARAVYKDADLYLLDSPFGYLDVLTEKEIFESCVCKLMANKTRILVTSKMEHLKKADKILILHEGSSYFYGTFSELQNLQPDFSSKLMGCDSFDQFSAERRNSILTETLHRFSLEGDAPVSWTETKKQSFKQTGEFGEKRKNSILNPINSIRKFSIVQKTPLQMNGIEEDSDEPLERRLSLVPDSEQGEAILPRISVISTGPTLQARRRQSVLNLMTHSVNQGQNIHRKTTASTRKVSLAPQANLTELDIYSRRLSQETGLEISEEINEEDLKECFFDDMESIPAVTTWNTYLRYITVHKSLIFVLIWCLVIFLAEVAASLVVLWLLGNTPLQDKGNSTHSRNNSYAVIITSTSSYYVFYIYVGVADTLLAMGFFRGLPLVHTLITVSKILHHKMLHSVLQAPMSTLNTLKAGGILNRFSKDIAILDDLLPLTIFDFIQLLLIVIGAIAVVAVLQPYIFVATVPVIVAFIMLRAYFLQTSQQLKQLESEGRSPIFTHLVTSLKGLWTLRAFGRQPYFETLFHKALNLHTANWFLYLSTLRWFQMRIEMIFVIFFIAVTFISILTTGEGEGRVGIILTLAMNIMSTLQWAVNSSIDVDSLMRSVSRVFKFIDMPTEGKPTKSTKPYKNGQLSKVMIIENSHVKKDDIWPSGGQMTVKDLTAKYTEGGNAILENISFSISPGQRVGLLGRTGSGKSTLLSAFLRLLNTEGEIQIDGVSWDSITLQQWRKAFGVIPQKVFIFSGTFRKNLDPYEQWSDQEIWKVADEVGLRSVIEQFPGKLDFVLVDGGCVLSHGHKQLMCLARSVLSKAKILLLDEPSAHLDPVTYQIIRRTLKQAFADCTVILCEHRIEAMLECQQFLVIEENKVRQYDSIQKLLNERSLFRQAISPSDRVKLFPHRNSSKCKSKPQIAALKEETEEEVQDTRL

| EC50 (ΔF508-CFTR; read-out: Binned EC50) | Emax (ΔF508-CFTR; read-out: Binned Max Efficacy) | EC50 (ΔF508-CFTR; read-out: EC50) | Emax (ΔF508-CFTR; read-out: Max Efficacy) | solubility (Solubility in water) | Binned Max Efficacy (ΔF508-CFTR) | Max Efficacy (ΔF508-CFTR) | SMILES |
| --- | --- | --- | --- | --- | --- | --- | --- |
| < 2 µM | > 100% | 0.0391 µM | 126% |  |  |  | COc1ccc(C2(C(=O)Nc3ccc4c(c3)cc(C(C)(C)C)n4C[C@@H](O)CO)CC2(C)C)cc1 (stereo partly shown) [Compound 319] |
| < 2 µM | 25 to 100% | 1.81 µM | 76% |  |  |  | CC(C)(C)c1cc2cc(NC(=O)C3(c4ccc(O)c(O)c4)CC3)ccc2n1C[C@@H](O)CO [Compound 321] |
| < 2 µM | > 100% | 0.981 µM | 160% |  |  |  | CC(C)(C)c1cc2cc(NC(=O)C3(c4ccc5c(c4)CCC5)CC3)ccc2n1C[C@@H](O)CO [Compound 307] |
| 2 to 5 µM | 25 to 100% | 4.53 µM | 65.5% |  |  |  | COc1ccc(C2(C(=O)Nc3ccc4[nH]c(C(C)(C)C)cc4c3)CC2(C)C)cc1 (stereo not shown) [Compound 317] |
| < 2 µM | > 100% | 0.0818 µM | 126% |  |  |  | CC(C)(CCO)c1cc2cc(NC(=O)C3(c4ccc5c(c4)OC(F)(F)O5)CC3)c(F)cc2n1C[C@@H](O)CO [Compound 311] |
| < 2 µM |  | 0.16 µM |  |  | +++ (“+++” means >100%) | 120.5% | CC(C)(C)c1cc2cc(NC(=O)C3(c4ccc5c(c4)OCO5)CC3)c(F)cc2n1C[C@@H](O)CO [Compound 310] |
| < 2 µM | > 100% | 0.0659 µM | 132% |  |  |  | CC(C)(C)c1cc2cc(NC(=O)C3(c4ccc5c(c4)OCO5)CC3)c(F)cc2n1C[C@@H](O)CO [Compound 318] |
| < 2 µM | > 100% | 0.272 µM | 106% |  |  |  | CC(C)(CO)c1cc2cc(NC(=O)C3(c4ccc5c(c4)OC(F)(F)O5)CC3)c(F)cc2n1C[C@@H](O)CO [Compound 315] |

The remaining lines, values behind:

| SMILES | EC50 (ΔF508-CFTR; read-out: Binned EC50) | Emax (ΔF508-CFTR; read-out: Binned Max Efficacy) | EC50 (ΔF508-CFTR; read-out: EC50) | Emax (ΔF508-CFTR; read-out: Max Efficacy) | solubility (Solubility in water) | Binned Max Efficacy (ΔF508-CFTR) | Max Efficacy (ΔF508-CFTR) |
| --- | --- | --- | --- | --- | --- | --- | --- |
| CC(C)(C)c1cc2c(C#N)c(NC(=O)C3(c4ccc5c(c4)OC(F)(F)O5)CC3)ccc2n1CCO [Compound 312] | < 2 µM | > 100% | 0.181 µM | 118% |  |  |  |
| CC(C)(C)c1cc(C(C)(C)C)c(NC(=O)c2c[nH]c3ccccc3c2=O)cc1O [Compound B, N-(2,4-di-tert-butyl-5-hydroxyphenyl)-4-oxo-1,4-dihydroquinoline-3-carboxamide] |  |  |  |  | < 0.05 µg/mL |  |  |
| CC(C)(CCOC[C@@H](O)CO)c1cc2cc(NC(=O)C3(c4ccc5c(c4)OC(F)(F)O5)CC3)c(F)cc2n1C[C@@H](O)CO [Compound 308] | 2 to 5 µM | > 100% | 3.1 µM | 100% |  |  |  |
| CC1(C)CCn2c1cc1cc(NC(=O)C3(c4ccc5c(c4)OC(F)(F)O5)CC3)c(F)cc12 [Compound 314] | < 2 µM | > 100% | 0.229 µM | 124% |  |  |  |
| CC(C)(CCOC[C@@H](O)CO)c1cc2cc(NC(=O)C3(c4ccc5c(c4)OC(F)(F)O5)CC3)c(F)cc2[nH]1 [Compound 316] | < 2 µM | > 100% | 0.285 µM | 126% |  |  |  |
| CC(C)(CO)c1cc2cc(NC(=O)C3(c4ccc5c(c4)OC(F)(F)O5)CC3)c(F)cc2[nH]1 [Compound 320] | 2 to 5 µM | 25 to 100% | 4.32 µM | 94% |  |  |  |
| CC(C)(C)c1cc2c(C#N)c(NC(=O)C3(c4ccc5c(c4)OC(F)(F)O5)CC3)ccc2[nH]1 [Compound 313] | < 2 µM | > 100% | 0.284 µM | 102% |  |  |  |
| CN(C)CCn1c(C(C)(C)C)cc2cc(NC(=O)C3(c4ccc5c(c4)OC(F)(F)O5)CC3)c(F)cc21 [Compound 309] | < 2 µM |  | 0.0381 µM |  |  | +++ (“+++” means >100%) | 122% |
